{"source": "patent US9750449B2", "about": "“Method of assessing skin” (Johnson & Johnson Consumer Inc., priority 2003, dated 2017)", "key": {"facial skin [1]": {"system": "facial skin", "experiment": "Visual observation of the appearance of wrinkles in treated areas", "assay_type": "in vivo, human", "conditions": "cream with 0.15% retinol applied daily, vehicle cream alone had no effect"}, "facial skin [2]": {"system": "facial skin", "experiment": "In vivo facial skin fluorescence after daily topical retinol cream versus vehicle", "design": "species or system human", "conditions": "cheek", "source_text": "In vivo fluorescence spectroscopy can be performed for example using a fiber optic probe attached to a spectrofluorimeter (e.g. the model SkinSkan (J Y Horiba, Edison, N.J.)). The method requires: a) a UV radiation source (e.g., a Xenon arc lamp or a mercury lamp), b) a method of selecting the radiation wavelength (e.g. a monochromator, a prism, or a grating), c) a method of delivery of the radiation to the tissue (e.g. a fiber bundle), d) a method of collection of the emitted radiation from the tissue (e.g. a fiber bundle), e) a method of selecting the emitted radiation wavelength (e.g. a monochromator, a prism, or a grating), and f) a method of detecting the emitted radiation (e.g. a photomultiplier, a single photodiode, a photodiode array, or a CCD array). See, e.g., Stamatas G N, et al., J Invest Dermatol 118(2):295-302, 2002.\nMeasurements were preformed by placing the fiber optic probe in contact with the skin site of interest. Before each set of measurements, the instrument was spectrally calibrated for excitation and emission in the region 250-650 nm. […]\nAcquisition of excitation spectra was the preferred method of measuring in vivo skin fluorescence. […]\nIn order to account for variations in skin native pigmentation that attenuates the detected fluorescence signal, fluorescence intensity was normalized with the diffuse reflectance signal of the same skin site at the corresponding wavelength. […] The measured fluorescence in this wavelength region arises from the dermis (Gillies et al, 2000, Kollias et al, 1998), which means that excitation light has to travel through the whole epidermis where it is attenuated by epidermal melanin and proteins, both of which absorb strongly in the UV. […] Furthermore, the intensity of the light source is low below 300 nm and normalization of the fluorescence by the diffuse reflectance signal in this wavelength range amplified the noise. […] To overcome this problem, the tryptophan fluorescence signal may be normalized to another fluorescence band, rather than to the diffuse reflectance value at 295 nm. […]"}}}
{"smiles": "CC1=C(/C=C/C(C)=C/C=C/C(C)=C/CO)C(C)(C)CCC1", "note": "[retinol]", "values": [{"measurement": "appearance of wrinkles (visual observations)", "setting": "facial skin [1]", "value": "reduction in the appearance of wrinkles"}, {"measurement": "rate of decrease in the 295 nm band fluorescence", "setting": "facial skin [2]; cream with 0.15% retinol and SPF 15 sunscreen applied daily, measured at baseline, 3 and 6 months, placebo −0.04 units/month", "value": "−0.01", "unit": "units/month"}, {"measurement": "change of the 390 nm band fluorescence over the period of the study", "setting": "facial skin [2]; cream with 0.15% retinol applied daily, 6 months", "value": "did not significantly change"}, {"measurement": "normalized tryptophan fluorescence values (I295nm/I390nm) over time", "setting": "facial skin [2]; cream with 0.15% retinol applied daily, 6 months, p<0.05 versus vehicle (−0.062±0.029 ratio units per month)", "value": "remained virtually constant"}]}
